Assays:
[1] = molecular target: Dual specificity tyrosine-phosphorylation-regulated kinase 1A (Homo sapiens) (UniProt Q13627); test: Inhibition of human DYRK1A using RRRFRPASPLRGPPK as substrate in presence of [gamma-33P]ATP at 1 uM after 40 mins by scintillation counter method
[2] = molecular target: T1, Dual specificity protein kinase CLK1 (Homo sapiens, UniProt P49759); test: Inhibition of CLK mediated SF3B1 activation in human SK-MEL-2 cells assessed as MDM2-pre mRNA exon skipping after 4 hrs by luciferase reporter gene assay relative to control; assay type: cell-based; settings: read-out: EC50
[3] = molecular target: Dual specificity protein kinase CLK3 (Homo sapiens, UniProt P49761); test: Inhibition of human CLK3 using ERMRPRKRQGSVRRRV as substrate in presence of [gamma-33P]ATP after 40 mins by scintillation counter method
[4] = molecular target: Cyclin-dependent kinase 1/cyclin B1 (Homo sapiens, UniProt P06493); test: Inhibition of human CDK1/cyclinB using Histone H1 as substrate in presence of [gamma-33P]ATP after 40 mins by scintillation counter method; assay type: protein-complex assay
CDK6/cyclin D3 = CDK6/cyclin D3 (Homo sapiens, UniProt Q00534); test: Inhibition of human CDK6/cyclinD3 using Histone H1 as substrate in presence of [gamma-33P]ATP after 40 mins by scintillation counter method; assay type: protein-complex assay
[5] = molecular target: T2, Aurora kinase A (Homo sapiens) (UniProt O14965); test: Inhibition of human Aurora-A using Kemptide as substrate in presence of [gamma-33P]ATP at 1 uM after 40 mins by scintillation counter method
T2 sequence (whole entry): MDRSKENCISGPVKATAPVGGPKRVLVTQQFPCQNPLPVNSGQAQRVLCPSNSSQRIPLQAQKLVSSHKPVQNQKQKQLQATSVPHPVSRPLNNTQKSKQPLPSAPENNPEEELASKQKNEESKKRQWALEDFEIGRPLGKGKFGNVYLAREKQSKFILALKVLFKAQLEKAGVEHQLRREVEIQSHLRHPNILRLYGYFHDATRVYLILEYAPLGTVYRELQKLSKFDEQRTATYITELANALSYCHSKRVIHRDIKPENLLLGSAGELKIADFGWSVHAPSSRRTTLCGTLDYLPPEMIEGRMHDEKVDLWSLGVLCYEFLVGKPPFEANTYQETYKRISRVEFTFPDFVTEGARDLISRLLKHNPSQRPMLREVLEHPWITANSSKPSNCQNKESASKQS

[6] = molecular target: Receptor-type tyrosine-protein kinase FLT3 (Homo sapiens) (UniProt P36888); test: Inhibition of human Flt3 using EAIYAAPFAKKK as substrate in presence of [gamma-33P]ATP at 1 uM after 40 mins by scintillation counter method
Receptor-type tyrosine-protein kinase FLT3 (Homo sapiens), sequence (P36888 whole entry): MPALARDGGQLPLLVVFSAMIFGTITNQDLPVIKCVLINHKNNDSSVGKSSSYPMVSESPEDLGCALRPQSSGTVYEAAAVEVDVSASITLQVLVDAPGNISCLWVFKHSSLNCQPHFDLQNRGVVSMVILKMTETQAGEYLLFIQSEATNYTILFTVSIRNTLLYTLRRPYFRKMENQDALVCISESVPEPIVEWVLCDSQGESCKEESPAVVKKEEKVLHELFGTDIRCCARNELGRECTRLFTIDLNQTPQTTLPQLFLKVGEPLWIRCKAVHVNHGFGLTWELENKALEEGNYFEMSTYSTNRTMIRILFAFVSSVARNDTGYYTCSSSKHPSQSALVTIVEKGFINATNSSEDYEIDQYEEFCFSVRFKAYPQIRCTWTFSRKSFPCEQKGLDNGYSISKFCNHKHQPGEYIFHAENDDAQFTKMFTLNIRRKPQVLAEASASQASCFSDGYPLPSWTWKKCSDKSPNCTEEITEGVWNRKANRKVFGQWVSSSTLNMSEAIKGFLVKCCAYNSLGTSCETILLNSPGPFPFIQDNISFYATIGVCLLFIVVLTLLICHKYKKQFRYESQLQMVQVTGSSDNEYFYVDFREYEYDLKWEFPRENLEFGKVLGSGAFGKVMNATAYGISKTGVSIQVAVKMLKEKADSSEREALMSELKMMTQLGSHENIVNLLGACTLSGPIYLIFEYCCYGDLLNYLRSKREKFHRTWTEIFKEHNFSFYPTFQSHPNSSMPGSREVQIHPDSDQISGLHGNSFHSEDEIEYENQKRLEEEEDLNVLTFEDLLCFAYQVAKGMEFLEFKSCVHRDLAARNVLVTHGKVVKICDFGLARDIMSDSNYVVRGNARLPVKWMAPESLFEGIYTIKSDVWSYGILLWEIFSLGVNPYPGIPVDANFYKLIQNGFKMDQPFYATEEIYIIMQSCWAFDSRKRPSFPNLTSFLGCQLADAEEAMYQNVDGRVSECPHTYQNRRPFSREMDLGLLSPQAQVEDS

[7] = molecular target: Macrophage colony-stimulating factor 1 receptor (Homo sapiens) (UniProt P07333); test: Inhibition of human Fms using KKKSPGEYVNIEFG as substrate in presence of [gamma-33P]ATP at 1 uM after 40 mins by scintillation counter method
[8] = molecular target: Vascular endothelial growth factor receptor 2 (Homo sapiens) (UniProt P35968); test: Inhibition of human KDR using myelin basic protein as substrate in presence of [gamma-33P]ATP at 1 uM after 40 mins by scintillation counter method
[9] = molecular target: Dual specificity mitogen-activated protein kinase kinase 1 (Homo sapiens) (UniProt Q02750); test: Inhibition of human MEK1 using inactive MAPK2 as substrate in presence of [gamma-33P]ATP at 1 uM after 40 mins by scintillation counter method
[10] = molecular target: T3, Mitogen-activated protein kinase kinase kinase 2 (Homo sapiens) (UniProt Q9Y2U5); test: Inhibition of human MEKK2 using myelin basic protein as substrate in presence of [gamma-33P]ATP at 1 uM after 40 mins by scintillation counter method
T3 sequence (whole entry): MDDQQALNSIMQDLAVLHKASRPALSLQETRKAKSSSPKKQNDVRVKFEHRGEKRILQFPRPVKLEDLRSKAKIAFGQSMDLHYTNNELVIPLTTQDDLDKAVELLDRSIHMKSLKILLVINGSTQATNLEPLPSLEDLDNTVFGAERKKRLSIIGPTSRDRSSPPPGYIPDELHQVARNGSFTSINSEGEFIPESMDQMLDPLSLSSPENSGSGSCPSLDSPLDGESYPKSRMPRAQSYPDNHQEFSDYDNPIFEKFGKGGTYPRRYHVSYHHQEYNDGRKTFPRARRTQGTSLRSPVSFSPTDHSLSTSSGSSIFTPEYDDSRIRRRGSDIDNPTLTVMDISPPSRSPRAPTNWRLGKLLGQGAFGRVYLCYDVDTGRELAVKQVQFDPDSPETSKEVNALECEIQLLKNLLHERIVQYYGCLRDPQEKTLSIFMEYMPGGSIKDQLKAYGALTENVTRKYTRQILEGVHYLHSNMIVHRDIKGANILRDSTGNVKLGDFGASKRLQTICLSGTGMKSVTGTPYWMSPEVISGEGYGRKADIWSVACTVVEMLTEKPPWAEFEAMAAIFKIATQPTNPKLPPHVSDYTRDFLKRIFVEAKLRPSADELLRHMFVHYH

[11] = molecular target: Serine/threonine-protein kinase PLK1 (Homo sapiens) (UniProt P53350); test: Inhibition of human Plk1 using casein as substrate in presence of [gamma-33P]ATP at 1 uM after 40 mins by scintillation counter method
Serine/threonine-protein kinase PLK1 (Homo sapiens), sequence (P53350 whole entry, the tested form may be a part): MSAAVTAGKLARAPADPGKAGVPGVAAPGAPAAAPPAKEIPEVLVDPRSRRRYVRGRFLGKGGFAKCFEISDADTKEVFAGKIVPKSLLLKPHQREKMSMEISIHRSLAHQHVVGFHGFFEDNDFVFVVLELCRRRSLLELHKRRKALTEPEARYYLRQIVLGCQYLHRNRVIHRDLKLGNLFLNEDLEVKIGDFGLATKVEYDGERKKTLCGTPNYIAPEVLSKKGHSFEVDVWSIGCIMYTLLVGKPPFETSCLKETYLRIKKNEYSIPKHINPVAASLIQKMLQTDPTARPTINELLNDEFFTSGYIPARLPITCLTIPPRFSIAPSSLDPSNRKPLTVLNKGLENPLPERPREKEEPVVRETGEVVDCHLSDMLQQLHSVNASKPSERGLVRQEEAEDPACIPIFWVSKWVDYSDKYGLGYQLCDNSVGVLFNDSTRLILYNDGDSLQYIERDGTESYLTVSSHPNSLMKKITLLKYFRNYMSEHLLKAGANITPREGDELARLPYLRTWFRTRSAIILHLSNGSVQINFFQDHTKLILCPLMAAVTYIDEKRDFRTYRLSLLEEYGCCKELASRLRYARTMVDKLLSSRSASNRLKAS

[12] = molecular target: Proto-oncogene tyrosine-protein kinase Src (Homo sapiens) (UniProt P12931); test: Inhibition of human Src (1 to 530 residues) using GGEEEEYFELVKKKK as substrate in presence of [gamma-33P]ATP at 1 uM after 40 mins by scintillation counter method
Proto-oncogene tyrosine-protein kinase Src (Homo sapiens), sequence (P12931 2-536 limits assumed): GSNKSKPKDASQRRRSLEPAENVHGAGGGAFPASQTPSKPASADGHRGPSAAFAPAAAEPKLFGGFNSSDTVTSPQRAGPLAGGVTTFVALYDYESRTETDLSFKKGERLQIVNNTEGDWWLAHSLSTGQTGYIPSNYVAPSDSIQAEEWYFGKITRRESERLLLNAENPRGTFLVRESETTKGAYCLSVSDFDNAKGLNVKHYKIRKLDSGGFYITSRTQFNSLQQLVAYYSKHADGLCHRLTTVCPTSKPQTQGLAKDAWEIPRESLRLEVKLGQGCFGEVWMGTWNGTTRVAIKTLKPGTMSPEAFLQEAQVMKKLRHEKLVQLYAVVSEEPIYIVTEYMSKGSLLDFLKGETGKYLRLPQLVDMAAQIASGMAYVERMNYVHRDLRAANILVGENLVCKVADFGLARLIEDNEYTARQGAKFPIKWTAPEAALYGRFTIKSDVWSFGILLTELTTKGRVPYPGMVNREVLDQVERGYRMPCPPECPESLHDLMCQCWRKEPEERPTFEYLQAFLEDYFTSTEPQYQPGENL

[13] = molecular target: SRSF protein kinase 1 (Homo sapiens) (UniProt Q96SB4); test: Inhibition of human SRPK1 using RSRSRSRSRSRSRSR as substrate in presence of [gamma-33P]ATP at 1 uM after 40 mins by scintillation counter method
SRSF protein kinase 1 (Homo sapiens), sequence (Q96SB4 whole entry): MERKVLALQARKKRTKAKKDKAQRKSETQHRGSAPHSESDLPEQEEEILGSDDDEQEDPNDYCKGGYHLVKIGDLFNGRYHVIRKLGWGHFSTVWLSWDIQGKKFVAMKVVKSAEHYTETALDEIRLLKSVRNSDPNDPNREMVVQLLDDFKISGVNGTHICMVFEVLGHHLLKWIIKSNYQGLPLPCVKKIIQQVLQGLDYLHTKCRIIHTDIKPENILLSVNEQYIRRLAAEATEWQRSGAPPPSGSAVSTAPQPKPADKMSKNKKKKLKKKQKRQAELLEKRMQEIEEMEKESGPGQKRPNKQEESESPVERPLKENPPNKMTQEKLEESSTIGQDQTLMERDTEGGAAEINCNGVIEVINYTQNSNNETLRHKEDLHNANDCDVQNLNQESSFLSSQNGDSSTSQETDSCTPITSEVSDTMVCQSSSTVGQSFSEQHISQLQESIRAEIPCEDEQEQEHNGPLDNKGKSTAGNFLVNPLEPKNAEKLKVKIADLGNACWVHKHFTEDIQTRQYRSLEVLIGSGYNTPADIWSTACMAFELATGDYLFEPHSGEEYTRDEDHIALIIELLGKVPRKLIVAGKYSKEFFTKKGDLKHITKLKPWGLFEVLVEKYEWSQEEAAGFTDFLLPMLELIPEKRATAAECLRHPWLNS

[14] = molecular target: PI3K p110 beta/p85 alpha (Homo sapiens) (UniProt P27986+P42338); test: Inhibition of human PI3K p110beta/pI3K p85alpha at 1 uM using PIP2 as substrate in presence of biotinylated PIP3 and ATP and measured after 30 mins by HTRF method; assay type: protein-complex assay
PI3K p110 beta/p85 alpha (Homo sapiens), sequence (P27986 2-724 limits assumed): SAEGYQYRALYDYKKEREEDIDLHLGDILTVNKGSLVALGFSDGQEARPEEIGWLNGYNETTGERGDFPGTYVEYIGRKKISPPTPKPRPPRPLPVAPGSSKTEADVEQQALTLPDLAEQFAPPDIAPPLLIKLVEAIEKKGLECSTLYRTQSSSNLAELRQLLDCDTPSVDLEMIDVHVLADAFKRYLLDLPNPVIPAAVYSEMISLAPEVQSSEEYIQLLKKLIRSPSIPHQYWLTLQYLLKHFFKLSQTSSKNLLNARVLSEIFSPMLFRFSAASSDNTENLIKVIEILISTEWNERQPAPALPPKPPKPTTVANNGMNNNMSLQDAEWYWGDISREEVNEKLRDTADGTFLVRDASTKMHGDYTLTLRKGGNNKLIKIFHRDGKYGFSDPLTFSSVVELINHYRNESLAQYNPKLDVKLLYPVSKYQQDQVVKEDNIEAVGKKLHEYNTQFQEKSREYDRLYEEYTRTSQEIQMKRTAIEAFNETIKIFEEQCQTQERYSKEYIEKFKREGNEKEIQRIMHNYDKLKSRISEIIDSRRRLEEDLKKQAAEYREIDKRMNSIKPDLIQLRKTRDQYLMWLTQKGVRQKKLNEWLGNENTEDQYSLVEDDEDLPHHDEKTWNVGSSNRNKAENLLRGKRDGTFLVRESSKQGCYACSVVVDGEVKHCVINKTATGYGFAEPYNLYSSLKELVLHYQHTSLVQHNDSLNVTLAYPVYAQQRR
PI3K p110 beta/p85 alpha (Homo sapiens), sequence (P42338 whole entry partner): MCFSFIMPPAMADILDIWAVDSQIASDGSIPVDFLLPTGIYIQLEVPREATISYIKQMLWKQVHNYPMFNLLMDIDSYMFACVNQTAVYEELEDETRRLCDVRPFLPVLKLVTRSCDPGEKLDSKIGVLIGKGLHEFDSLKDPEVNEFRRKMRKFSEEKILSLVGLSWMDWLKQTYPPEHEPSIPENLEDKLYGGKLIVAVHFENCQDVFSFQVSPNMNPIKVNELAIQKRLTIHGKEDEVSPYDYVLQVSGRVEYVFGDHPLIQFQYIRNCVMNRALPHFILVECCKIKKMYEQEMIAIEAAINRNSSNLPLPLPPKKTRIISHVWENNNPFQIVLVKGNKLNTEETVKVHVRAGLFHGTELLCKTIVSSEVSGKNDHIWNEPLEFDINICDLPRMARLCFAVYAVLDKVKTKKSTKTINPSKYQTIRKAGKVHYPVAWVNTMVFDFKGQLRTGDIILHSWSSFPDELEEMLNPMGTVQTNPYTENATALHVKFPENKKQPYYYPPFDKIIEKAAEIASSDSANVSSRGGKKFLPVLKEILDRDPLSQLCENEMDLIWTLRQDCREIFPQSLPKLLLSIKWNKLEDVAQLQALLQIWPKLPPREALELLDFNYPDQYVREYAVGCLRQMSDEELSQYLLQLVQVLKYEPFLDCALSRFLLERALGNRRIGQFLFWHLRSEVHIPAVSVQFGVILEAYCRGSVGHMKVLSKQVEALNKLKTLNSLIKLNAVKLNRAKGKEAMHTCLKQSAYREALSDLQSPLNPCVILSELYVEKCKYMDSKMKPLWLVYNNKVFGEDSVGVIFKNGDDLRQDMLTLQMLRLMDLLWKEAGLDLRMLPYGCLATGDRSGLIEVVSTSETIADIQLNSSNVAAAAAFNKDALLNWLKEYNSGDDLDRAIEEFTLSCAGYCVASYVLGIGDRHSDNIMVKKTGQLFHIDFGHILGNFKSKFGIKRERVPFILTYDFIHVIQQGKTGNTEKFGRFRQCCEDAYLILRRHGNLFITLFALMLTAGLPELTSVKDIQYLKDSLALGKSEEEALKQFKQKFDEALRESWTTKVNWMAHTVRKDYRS

[15] = molecular target: PI3-kinase p110-delta/p85-alpha (Homo sapiens) (UniProt P27986+O00329); test: Inhibition of human PI3K p110delta/pI3K p85alpha at 1 uM using PIP2 as substrate in presence of biotinylated PIP3 and ATP and measured after 30 mins by HTRF method; assay type: protein-complex assay
[16] = molecular target: PI3-kinase p110-alpha/p85-alpha (Homo sapiens) (UniProt P27986+P42336); test: Inhibition of human PI3K p110alpha/pI3K p85alpha at 1 uM using PIP2 as substrate in presence of biotinylated PIP3 and ATP and measured after 30 mins by HTRF method; assay type: protein-complex assay
[17] = molecular target: T1, Dual specificity protein kinase CLK1; test: Inhibition of CLK mediated SF3B1 activation in human SK-MEL-2 cells assessed as MDM2-pre mRNA exon skipping at 10 uM after 4 hrs by luciferase reporter gene assay relative to control; assay type: cell-based
Target sequence in this assay (P49759 whole entry, looked up): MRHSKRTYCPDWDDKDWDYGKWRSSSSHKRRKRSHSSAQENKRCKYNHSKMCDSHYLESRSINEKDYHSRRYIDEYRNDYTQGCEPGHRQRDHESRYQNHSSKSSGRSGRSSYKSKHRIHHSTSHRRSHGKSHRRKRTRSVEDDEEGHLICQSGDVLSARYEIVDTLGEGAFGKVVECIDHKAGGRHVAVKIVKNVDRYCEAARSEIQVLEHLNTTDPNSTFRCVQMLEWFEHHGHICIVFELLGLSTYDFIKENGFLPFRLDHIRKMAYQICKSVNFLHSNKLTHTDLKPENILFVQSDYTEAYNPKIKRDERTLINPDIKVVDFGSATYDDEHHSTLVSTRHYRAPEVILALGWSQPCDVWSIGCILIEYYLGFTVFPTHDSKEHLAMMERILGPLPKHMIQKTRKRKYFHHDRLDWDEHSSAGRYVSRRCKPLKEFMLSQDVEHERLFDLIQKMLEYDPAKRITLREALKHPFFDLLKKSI

| SMILES | inhibition [1] [%] | EC50 [2] [nM] | IC50 [3] [nM] | IC50 [4] [nM] | IC50 (CDK6/cyclin D3) [nM] | inhibition [5] [%] | inhibition [6] [%] | inhibition [7] [%] | inhibition [8] [%] | inhibition [9] [%] | inhibition [10] [%] | inhibition [11] [%] | inhibition [12] [%] | inhibition [13] [%] | inhibition [14] [%] | inhibition [15] [%] | inhibition [16] [%] | fold change (FC) [17] |
| --- | --- | --- | --- | --- | --- | --- | --- | --- | --- | --- | --- | --- | --- | --- | --- | --- | --- | --- |
| CC(C)n1cnc2c(Nc3cccc(Cl)c3)nc(N[C@H]3CCCC[C@@H]3N)nc21 | 5 | 11700 | > 1000 | > 1000 | > 1000 | 4 | 19 | -1 | 16 | 10 | 47 | 49 | 22 | -1 | 5 | 2 | 2 | > 3 |
| CC(C)n1cnc2c(Nc3cc(N)cc(Cl)c3)nc(N[C@@H]3CCCC[C@@H]3N)nc21 (racemic) | 19 |  |  |  |  | 13 | 93 | 9 | 4 | 6 | 48 | 60 | 78 | 21 | 4 | 0 | 1 | > 3 |
| CC(C)n1cnc2c(Nc3cccc(Cl)c3)nc(N[C@@H]3CCCC[C@@H]3N)nc21 | 28 | 4300 | > 1000 | 674 | > 1000 | -5 | 90 |  | -6 | 8 | 18 | 9 | 69 | 48 | 4 | 3 | 5 | > 3 |
